According to ChEMBL document CHEMBL1140615, “Predicting anti-HIV activity of PETT derivatives: CoMFA approach” (2007):
Values joined by “and” are separate entries in the source; they are usually repeats but may differ in a detail not shown here. Identical values can stand only once.

test system: Human immunodeficiency virus 1; test: Antiviral activity against HIV1 in MT4 cells assessed as reduction of virus-induced cytopathicity by XTT assay; assay type: functional

`S=C(NCCc1ccccc1)Nc1ncc(Cl)s1` was tested. Which Log10ED50 did it give?
The Log10ED50 was 0.4314.

With `S=C(NCCc1ccccc1Cl)Nc1nccs1` as the molecule, how does the pED50 read?
Its pED50 is 0.3979.

`S=C(NCCc1ccccc1)Nc1nncs1` was tested. Which Log10ED50 did it give?
The Log10ED50 was 0.7243.

For `S=C(NCCc1ccccn1)Nc1nccs1`, which Log10ED50 is on record?
Its Log10ED50 is 0.1139.

With `S=C(NCCc1cccc(Oc2ccccc2)c1)Nc1nccs1` as the molecule, how does the Log10ED50 read?
Its Log10ED50 is 0.4471.

With `N#Cc1csc(NC(=S)NCCc2ccccc2)n1` as the molecule, how does the pED50 read?
The pED50 was 0.6989.

With `COc1cccc(F)c1CCNC(=S)Nc1nccs1` as the molecule, how does the pED50 read?
Its pED50 is 0.5229.

How did the pED50 turn out when `COc1ccc(Br)cc1CCNC(=S)Nc1nccs1` was run?
Its pED50 is 1.301.

`Fc1cccc(F)c1CCNC(=S)Nc1nccs1` was tested. Which pED50 did it give?
The pED50 was 1.6989.

`Fc1cccc(Cl)c1CCNC(=S)Nc1nccs1` was tested. Which pED50 did it give?
Its pED50 is 1.301.

With `Cn1cccc1CNC(=S)Nc1ccc(Cl)cn1` as the molecule, how does the pED50 read?
Its pED50 is 0.602.

`CN(C)c1ccc(F)c(CCNC(=S)Nc2ccc(Cl)cn2)c1F` was tested. Which pED50 did it give?
The pED50 was 1.3979.

How did the pED50 turn out when `CCOc1ccc(F)c(CCNC(=S)Nc2ccc(Br)cn2)c1F` was run?
Its pED50 is 2.2218.

Which pED50 does the source give for `COCc1ccc(F)c(CCNC(=S)Nc2ccc(Br)cn2)c1F` here?
Its pED50 is 2.2218.

How did the pED50 turn out when `CCOc1ccc(F)c(CCNC(=S)Nc2ccc(Cl)cn2)c1Cl` was run?
The pED50 was 2.0969.

`CCOc1ccc(F)c(CCNC(=S)Nc2ccc(I)cn2)c1Cl` was tested. Which pED50 did it give?
The pED50 was 1.8239.

`COc1ccc(OC)c(CCNC(=S)Nc2ccc(Cl)cn2)c1F` was tested. Which pED50 did it give?
The pED50 was 2.6989.

With `COc1ccc(F)c(CCNC(=S)Nc2ccc(Cl)cn2)c1OC` as the molecule, how does the pED50 read?
Its pED50 is 1.9208.

How did the pED50 turn out when `CCOc1cccc(F)c1CCNC(=S)Nc1ccc(Br)cn1` was run?
Its pED50 is 1.886 and 1.6989.

`CN(C)C(=O)c1ccc(F)c(CCNC(=S)Nc2ccc(Br)cn2)c1F` was tested. Which pED50 did it give?
Its pED50 is 1.0969.

Which pED50 does the source give for `COc1ccc(OC)c(CCNC(=S)Nc2ccc(Cl)cn2)c1` here?
Its pED50 is 1.3979.

How did the pED50 turn out when `N#Cc1ccc(F)c(CCNC(=S)Nc2ccc(Br)cn2)c1F` was run?
Its pED50 is 1.886.

`Fc1ccccc1CCNC(=S)Nc1nccs1` was tested. Which pED50 did it give?
The pED50 was 1.

For `Fc1cccc(CCNC(=S)Nc2nccs2)c1`, which pED50 is on record?
The pED50 was 0.6021.

`Fc1ccc(CCNC(=S)Nc2nccs2)cc1` was tested. Which Log10ED50 did it give?
Its Log10ED50 is 0.5185.

With `N#Cc1csc(NC(=S)NCCc2c(F)cccc2F)n1` as the molecule, how does the pED50 read?
The pED50 was 1.5229.

For `Cn1cccc1CNC(=S)Nc1ccc(C#N)cn1`, which pED50 is on record?
The pED50 was 0.959.

For `COc1ccccc1CCNC(=S)Nc1nccs1`, which pED50 is on record?
Its pED50 is 0.3979.

For `COc1ccc(CCNC(=S)Nc2nccs2)cc1`, which Log10ED50 is on record?
The Log10ED50 was 0.7404.

For `Cc1ccccc1CCNC(=S)Nc1nccs1`, which pED50 is on record?
Its pED50 is 0.0227.

For `CCOc1ccc(OCC)c(CCNC(=S)Nc2ccc(Br)cn2)c1`, which pED50 is on record?
Its pED50 is 1.7447.

How did the Log10ED50 turn out when `O=[N+]([O-])c1ccccc1CCNC(=S)Nc1nccs1` was run?
The Log10ED50 was 0.0414.

With `CCOc1cccc(CCNC(=S)Nc2nccs2)c1` as the molecule, how does the pED50 read?
Its pED50 is 0.8239.

With `CCCOc1cccc(CCNC(=S)Nc2nccs2)c1` as the molecule, how does the Log10ED50 read?
Its Log10ED50 is 0.3424.

For `CC(C)Oc1cccc(CCNC(=S)Nc2nccs2)c1`, which pED50 is on record?
Its pED50 is 0.3979.

Which pED50 does the source give for `Cc1csc(NC(=S)NCCc2ccccc2)n1` here?
Its pED50 is 0.3979.

Which pED50 does the source give for `CCc1csc(NC(=S)NCCc2ccccc2)n1` here?
The pED50 was 0.1549.

`CC(C)c1csc(NC(=S)NCCc2ccccc2)n1` was tested. Which Log10ED50 did it give?
Its Log10ED50 is 0.1139.

Which Log10ED50 does the source give for `CCCCc1csc(NC(=S)NCCc2ccccc2)n1` here?
Its Log10ED50 is 0.1139.

How did the pED50 turn out when `S=C(NCCc1ccccc1)Nc1ccccn1` was run?
Its pED50 is 0.6989.

For `S=C(NCCc1ccccc1)Nc1ccc(Br)cn1`, which pED50 is on record?
The pED50 was 1.301.

Which pED50 does the source give for `N#Cc1ccc(F)c(CC/N=C(\S)Nc2ccc(Cl)cn2)c1F` here?
The pED50 was 2.2218.

`COc1ccc(F)c(F)c1CC/N=C(\S)Nc1ccc(Br)cn1` was tested. Which pED50 did it give?
The pED50 was 2.1589.

Which Log10ED50 does the source give for `S=C(NCCc1ccccc1)Nc1nccs1` here?
The Log10ED50 was 0.1139.

`S=C(NCCc1cccnc1)Nc1nccs1` was tested. Which Log10ED50 did it give?
Its Log10ED50 is 0.8062.

How did the Log10ED50 turn out when `S=C(NCCc1ccco1)Nc1nccs1` was run?
The Log10ED50 was 0.716.

For `CCOC(=O)c1csc(NC(=S)NCCc2ccccc2)n1`, which pED50 is on record?
The pED50 was 0.301.

With `Cc1ccc(NC(=S)NCCc2ccccc2)nc1` as the molecule, how does the pED50 read?
The pED50 was 0.8239.

Which pED50 does the source give for `Cc1ccc(NC(=S)NCCc2c(F)cccc2F)nc1` here?
The pED50 was 2.

`CCOc1c(Cl)cc(F)c(CCNC(=S)Nc2ccc(Br)cn2)c1Cl` was tested. Which pED50 did it give?
Its pED50 is 1.886.

`COc1ccc(F)c(CCNC(=S)Nc2ccc(Br)cn2)c1F` was tested. Which pED50 did it give?
Its pED50 is 1.8239.

How did the Log10ED50 turn out when `CCCc1csc(NC(=S)NCCc2ccccc2)n1` was run?
Its Log10ED50 is 0.2041.

`CCOc1ccc(OC)c(CCNC(=S)Nc2ccc(Cl)cn2)c1F` was tested. Which pED50 did it give?
Its pED50 is 2.301.

For `CCOc1cccc(F)c1CCNC(=S)Nc1ccc(C)cn1`, which pED50 is on record?
The pED50 was 0.6989.

Which pED50 does the source give for `Cc1ccc(NC(=S)NCCc2ccccn2)nc1` here?
Its pED50 is 0.5228.

With `CCc1csc(NC(=S)NCCc2c(F)cccc2F)n1` as the molecule, how does the pED50 read?
Its pED50 is 1.0969.

Which Log10ED50 does the source give for `Oc1ccccc1CCNC(=S)Nc1nccs1` here?
The Log10ED50 was 0.602.

Which pED50 does the source give for `COc1cccc(OC)c1CCNC(=S)Nc1nccs1` here?
Its pED50 is 1.0457.

`CC(=O)NCc1ccc(F)c(CCNC(=S)Nc2ccc(Br)cn2)c1F` was tested. Which pED50 did it give?
Its pED50 is 0.0457.

Which pED50 does the source give for `COc1cccc(CCNC(=S)Nc2nccs2)c1` here?
Its pED50 is 0.2218.

Which pED50 does the source give for `COc1ccc(OC)c(CCNC(=S)Nc2nccs2)c1` here?
The pED50 was 0.3979.

`CCOc1ccc(F)c(F)c1CCNC(=S)Nc1ccc(Br)cn1` was tested. Which pED50 did it give?
The pED50 was 2.1549.

For `FC(F)(F)c1csc(NC(=S)NCCc2ccccc2)n1`, which pED50 is on record?
Its pED50 is 0.301.

With `CCOc1ccc(F)c(CCNC(=S)Nc2ccc(C#N)cn2)c1Cl` as the molecule, how does the pED50 read?
Its pED50 is 2.5229.

For `CCOc1cccc(F)c1CCNC(=S)Nc1nccs1`, which pED50 is on record?
The pED50 was 0.6989.

Which pED50 does the source give for `CN(C)c1ccc(F)c(CCNC(=S)Nc2ccc(Br)cn2)c1F` here?
The pED50 was 1.7447 and 1.3979.

For `Fc1cccc(F)c1CC/N=C(\S)Nc1ccc(Br)cn1`, which pED50 is on record?
Its pED50 is 2.

For `CCOc1ccc(F)c(CCNC(=S)Nc2ccc(Br)cn2)c1Cl` [THIOUREA, N-(5-BROMO-2-PYRIDINYL)-N'-(2-(2-CHLORO-3-ETHOXY-6-FLUOROPHENYL)ETHYL)-], which pED50 is on record?
Its pED50 is 2.1549.

How did the pED50 turn out when `S=C(NCCc1ccccn1)Nc1ccc(Br)cn1` [TROVIRDINE] was run?
The pED50 was 1.6989.
